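Grown in 96-well plates, cells were treated for 48 hours with each compound at five concentrations. Insufficient inhibition: endpoint recorded as highest concentration tested. GI50: concentration for 50% inhibition of growth. Definition used: TGI = concentration required for complete inhibition of growth.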
Columns and labels:
Experiment in all cases: NCI-60 cell line screen, 48 h
MCF7 breast = system: MCF7 breast
NCI/ADR-RES ovarian = system: NCI/ADR-RES ovarian
ACHN renal = system: ACHN renal
OVCAR-4 ovarian = system: OVCAR-4 ovarian
TK-10 renal = system: TK-10 renal
KM12 colon = system: KM12 colon
HL-60(TB) leukemia = system: HL-60(TB) leukemia
DU-145 prostate = system: DU-145 prostate
SF-539 CNS = system: SF-539 CNS
HCT-15 colon = system: HCT-15 colon
EKVX NSCLC = system: EKVX NSCLC
HOP-92 NSCLC = system: HOP-92 NSCLC
RXF 393 renal = system: RXF 393 renal
MALME-3M melanoma = system: MALME-3M melanoma
SK-MEL-28 melanoma = system: SK-MEL-28 melanoma
NCI-H460 lung = system: NCI-H460 lung
OVCAR-8 ovarian = system: OVCAR-8 ovarian
A549 NSCLC = system: A549 NSCLC
SF-295 CNS = system: SF-295 CNS
COLO 205 colon = system: COLO 205 colon
SK-MEL-2 melanoma = system: SK-MEL-2 melanoma
IGROV1 ovarian = system: IGROV1 ovarian
HT29 colon = system: HT29 colon
MDA-MB-435 = system: MDA-MB-435
T-47D breast = system: T-47D breast
SK-MEL-5 melanoma = system: SK-MEL-5 melanoma
RPMI-8226 leukemia = system: RPMI-8226 leukemia
UACC-62 melanoma = system: UACC-62 melanoma
HOP-62 NSCLC = system: HOP-62 NSCLC

SMILES: CCCC(=O)NC(c1cccnc1)c1ccc2c(C)ccnc2c1O (configuration not stated)
- GI50 (MCF7 breast): 1910 nM
- TGI (MCF7 breast): > 100000 nM
- GI50 (NCI/ADR-RES ovarian): 442 nM
- TGI (NCI/ADR-RES ovarian): 77500 nM
- GI50 (ACHN renal): 651 nM
- TGI (ACHN renal): > 100000 nM
- GI50 (OVCAR-4 ovarian): 995 nM
- TGI (OVCAR-4 ovarian): > 100000 nM
- GI50 (TK-10 renal): 3130 nM
- TGI (TK-10 renal): > 100000 nM
- GI50 (KM12 colon): 2280 nM
- TGI (KM12 colon): > 100000 nM
- GI50 (HL-60(TB) leukemia): 591 nM
- TGI (HL-60(TB) leukemia): 5850 nM
- GI50 (DU-145 prostate): 1700 nM
- TGI (DU-145 prostate): > 100000 nM
- GI50 (SF-539 CNS): 1740 nM
- TGI (SF-539 CNS): > 100000 nM
- GI50 (HCT-15 colon): 539 nM
- TGI (HCT-15 colon): > 100000 nM
- GI50 (EKVX NSCLC): 892 nM
- TGI (EKVX NSCLC): 20200 nM
- GI50 (HOP-92 NSCLC): 6100 nM
- TGI (HOP-92 NSCLC): > 100000 nM
- GI50 (RXF 393 renal): 2790 nM
- TGI (RXF 393 renal): > 100000 nM
- GI50 (MALME-3M melanoma): 2180 nM
- TGI (MALME-3M melanoma): > 100000 nM
- GI50 (SK-MEL-28 melanoma): 2300 nM
- TGI (SK-MEL-28 melanoma): > 100000 nM
- GI50 (NCI-H460 lung): 576 nM
- TGI (NCI-H460 lung): > 100000 nM
- GI50 (OVCAR-8 ovarian): 1860 nM
- TGI (OVCAR-8 ovarian): > 100000 nM
- GI50 (A549 NSCLC): 2150 nM
- TGI (A549 NSCLC): > 100000 nM
- GI50 (SF-295 CNS): 930 nM
- TGI (SF-295 CNS): > 100000 nM
- GI50 (COLO 205 colon): 1270 nM
- TGI (COLO 205 colon): > 100000 nM
- GI50 (SK-MEL-2 melanoma): 7090 nM
- TGI (SK-MEL-2 melanoma): > 100000 nM
- GI50 (IGROV1 ovarian): 1870 nM
- TGI (IGROV1 ovarian): > 100000 nM
- GI50 (HT29 colon): 2210 nM
- TGI (HT29 colon): > 100000 nM
- GI50 (MDA-MB-435): 2890 nM
- TGI (MDA-MB-435): > 100000 nM
- GI50 (T-47D breast): 1290 nM
- TGI (T-47D breast): > 100000 nM
- GI50 (SK-MEL-5 melanoma): 1690 nM
- TGI (SK-MEL-5 melanoma): 3650 nM
- GI50 (RPMI-8226 leukemia): 1880 nM
- TGI (RPMI-8226 leukemia): > 100000 nM
- GI50 (UACC-62 melanoma): 2110 nM
- TGI (UACC-62 melanoma): 20400 nM
- GI50 (HOP-62 NSCLC): 1500 nM
